The test system of one test is Male Sprague Dawley rats. Put plainly: Reversal of colorectal distension-induced pain behaviors. Format: in vivo, rat. Particulars: 90 minutes post dosing, mean ± SEM. Here is the method:
Visceral pain in rats can be induced by distension of the colorectal cavity and pain monitored by accessing the reflex contraction of abdominal muscles. Measurement of abdominal muscle reflex contractions with pain caused by colorectal distension in the rat is performed substantially as described by Fioramonti et al. Neurogastroenterology and Motility (2003) 15, 363-369 and Urban et al. J. of Pharmacology and Exp. Ther. (1999) 290, 207-213. Male Sprague Dawley rats are surgically implanted with electromyographic (EMG) electrodes in the oblique abdominal muscle and allowed to recover for one week, during which animals are acclimated to handling and partial restraint to minimize effects of stress. Baseline EMG measurements are collected and recorded after the insertion into the rectum (8 cm) of a lubricated latex balloon attached to a pressure monitor/regulator to step the pressure between 20, 40, and 60 mm Hg for a 20 second duration with a 3 minute resting period between trials. A set of three exposures at each pressure is recorded before stepping the pressure up to the next level. Data are collected as the area under the curve for EMG reading (volts per second) during the pressure stimulations, and averaged over the three trials. A test compound (prodrug) is orally dosed within a range of 1.5 to 17 mg/kg 90 minutes prior to the beginning of the colorectal distension. Statistical significance is defined as a p value <0.05 in an analysis of covariance followed by a Dunnett's post hoc test. Table 3 below provides the statistically significant results for Example 10 run substantially as above.

The subject of test [1] is rats. Put plainly: Reversal of CFA-induced mechanical hyperalgesia (Randall Sellito test). Format: in vivo, rat. Particulars: mean ± SEM, p<0.05 vs vehicle. Here is the method:
Induction of local inflammation in the rat hind paw will cause a persistent mechanical hyperalgesia that can be measured by determining the threshold to pressure stimuli to give a painful response. The method for complete Freund's adjuvant (CFA) induced mechanical hyperalgesia in rats is largely described in Iadarola et al. Brain Res. (1988) 455, 205-212. Rats are placed under isoflurane anesthesia while the right paw is injected with 50 μl of CFA (Sigma C5881, 1 mg/ml mycobacterium extract in 85% paraffin oil, 15% mannide monooleate) intraplantar. Animals are allowed to recover in soft bedding cages and mechanical hyperalgesia changes measured 24 hours post-CFA injection. Mechanical hyperalgesia (Randall Sellito Test) is determined by gently restraining the rat and placing the paw between the plinth and pusher (Ugo Basile Analgesy-meter). The gram force when the animal withdraws the paw is recorded.
Rats are tested for baseline response prior to CFA injection. Post-CFA response is tested the next morning (about 24 hours post injection of CFA). Rats are randomized based on post-CFA response with any rat showing a score of >150 grams excluded from further testing. A test compound (prodrug) is orally dosed within a range of 1.5 to 15 mg/kg and mechanical threshold for paw withdrawal is measured at 1 and 2 hours post dosing. Statistical significance is defined as a p value <0.05 in an analysis of covariance followed by a Dunnett's post hoc test for each time point. Table 2 below provides the statistically significant results for Example 10 run substantially as above.

A further test has as its system male Sprague-Dawley rats. Put plainly: Reversal of persistent pain induced by formalin injection. Format: in vivo. Particulars: po, 2 h, dosed two hours prior to intraplantar formalin, rat.
Test [2] deals with rats. Description: Reversal of L5/L6 nerve ligation induced tactile allodynia. Particulars: 15 mg/kg orally, n=8, ±SEM. Format: in vivo, rat. The procedure: Unilateral ligation of nerves innervating the hind leg region will result in a chronic persistent pain manifested as tactile allodynia in rats. L5/L6 nerve ligation is performed (Kim et al. Pain (1992) 50, 355-363). Neuropathic injury is produced by tightly ligating the left L5 and L6 spinal nerves under gaseous anesthesia with a mixture of isoflurane (3% for induction and 2% for maintenance) and oxygen. After a minimum of 14 days after surgery, tactile allodynia is evaluated by measuring tactile sensitivity of the injured paw to von Frey filaments with incremental bending forces (0.3 to 15 g) (Chaplan et al. J. of Neuroscience Methods (1994) 53, 55-63). […] Baseline values are determined immediately prior to assessment of test compound. A test compound (prodrug) is orally dosed at 15 mg/kg and the tactile threshold for paw withdrawal is measured at 1, 2 and 4 hours post dosing. Data are expressed as response threshold in grams (g) and values are with standard errors of means (±SE mean) for each time point. Data are analyzed using an analysis of variance followed by a Dunnett's post hoc analysis and represent absolute change in pain threshold (Cmax=maximum Response Baseline) and expressed as Mean [log (maximum response)−log predose score)] (g).

The results in this text go back to patent US8575214B2, “MGlu 2/3 agonists” (Eli Lilly and Company, priority 2012, dated 2013).

Structures are written as SMILES.

One may read the ED50 as the dose that gives a 50% effect, or the effect in half of the subjects.

Take `C[C@H](N)C(=O)N[C@@]1(C(=O)O)CC2(CC2)[C@H]2[C@H](C(=O)O)[C@H]21` [Example 10, (1S,2S,5R,6S)-2-[[(2S)-2-Aminopropanoyl]amino]spiro[bicyclo[3.1.0]hexane-4,1′-cyclopropane]-2,6-dicarboxylic acid dihydrate]: the “AUC of EMG reading for abdominal muscle with 60 mmHg colorectal pressure” value with Male Sprague Dawley rats (1.5 mg/kg po, pre-dosing baseline 853 ± 142, vehicle 849 ± 65) is reported as 618 ± 92 μV/sec; with Male Sprague Dawley rats (4.5 mg/kg po, pre-dosing baseline 887 ± 152, p<0.05 vs vehicle), 531 ± 99 μV/sec; in the test with Male Sprague Dawley rats (17 mg/kg po, pre-dosing baseline 773 ± 134, p<0.05 vs vehicle) it was 266 ± 87 μV/sec. Further, the “Paw withdrawal Threshold” value with rats [1] (1.5 mg/kg po, one hour post dosing, group pre CFA 243 ± 5, 24 hours post CFA 113 ± 8) is given as 180 ± 14 grams, force; in the test with rats [1] (1.5 mg/kg po, two hours post dosing, group pre CFA 243 ± 5, 24 hours post CFA 113 ± 8), 186 ± 19 grams, force; with rats [1] (4.5 mg/kg po, one hour post dosing, group pre CFA 221 ± 10, 24 hours post CFA 114 ± 9), 153 ± 20 grams, force; in the test on rats [1] (4.5 mg/kg po, two hours post dosing, group pre CFA 221 ± 10, 24 hours post CFA 114 ± 9), 221 ± 20 grams, force; in the test on rats [1] (15 mg/kg po, one hour post dosing, group pre CFA 244 ± 4, 24 hours post CFA 108 ± 12, cut-off 250 grams), 250 ± 0 grams, force; in the test on rats [1] (15 mg/kg po, two hours post dosing, group pre CFA 244 ± 4, 24 hours post CFA 108 ± 12), 232 ± 15 grams, force. Further, the median effective dose (ED50) in the test on male Sprague-Dawley rats was 4.8 mg/kg. Besides, the “mechanical threshold (von Frey, paw withdrawal)” value in the test with rats [2] (four hours post dosing, vehicle 2.35±0.62) amounted to 8.63 ± 1.98 g; in the test with rats [2] (one hour post dosing, vehicle 1.50±0.60), 9.06 ± 2.26 g; in the test with rats [2] (two hours post dosing, vehicle 1.34±0.75) it was 12.31 ± 1.86 g.
